The record followed here is patent publication US12491188B2, “Small molecule PARG inhibitors and methods of use thereof” (Board of Regents, The University of Texas System, priority 2019, dated 2025).

Series [1] relates to MRC-5 cells. The conditions noted are these: SRB. As for the experimental part: Sulforhodamine B (SRB) Cytotoxicity Assay. […] Colorimetric or fluorescence analysis was performed in a FlexStation 3, using SoftMax Pro 7.0, Molecular Devices. Normalized graphs were generated with Prism 8 software, non-linear 4-parameter data fitting was performed for IC50 calculation.
For series [2], the system named is MDA-MB-231 control and PARG-KD cells. The series can be described thus: Western blot of cellular PARylation (anti-PAR). It counts as cell-based, human. As for the experimental part:
Thus, dose-dependent JA2131-induced cellular PARylation with and without IR was investigated. For combined IR treatment, MDA-MB-231 cells were treated with JA2131 for 2 h, followed by 7 Gy X-ray and then allowed to recover for an hour before cellular extraction and Western blotting analysis.
Using shRNA, next, a stable MDA-MB-231 PARG knockdown (PARG-KD) cell-line was generated (FIG. 23). Comparison of PARGi JA2131-induced PARylation in PARG-KD and control cells was performed. It was reasoned that PARG-KD cells would show a reduced response to a selective PARGi as the stable PARG-KD cells would have to adopt a PARG-independent survival mechanism. MDA-MB-231 control cells and PARG-KD cells were treated with JA2131 then total cell lysates were subjected to immunoblotting with anti-PAR antibody, followed by immunodetection for anti-PARG, PARP1 and actin antibody (FIG. 22b). Untreated PARG-KD cells show a higher baseline level of PARylation than the control cells. […] Dose-response curves comparing control and PARG-KD cells further validate the selective action of JA2131 on control cells expressing PARG, but not on the PARG-KD cells (FIG. 25).
Antibodies and western blots. Cells were grown in 6-well plates and 10 cm dishes, treated with PARGi for 2 hours, irradiated and recovered for 1 hour before harvesting. Cells were irradiated, ranging from 1 to 10 Gy using RAD SOURCE, RS-2000, Biological System, RadSource.com. Cells were washed with phosphate buffer and saline (PBS) and lysed with buffer containing 50 mM Hepes, pH 7.5, 1% (v/v) igepal-C630, 1 mg/ml bacitracin, 1 mM EDTA, 10 mM NaF, 1 mM sodium orthovanadate, 10% (v/v) glycerol, 50 mM NaCl, 1 mM PMSF, and Protease Inhibitor Cocktail Set III (EMD Millipore). The detergent-soluble fraction was used for Western blotting. Cell fractionation was carried out using the Subcellular Protein Fractionation Kit (#78840, ThermoFisher) according to the manufacturer's instruction. Primary antibodies were purchased from the following sources; Actin, γH2AX and Histone-H3 was from Cell Signaling Technology. H2AX and LAMB1 were from Invitrogen/ThermoFisher. PCNA and p53 were from Santa Cruz biotechnology. Anti-PAR (10H) was from EMD Millipore, anti-PARG was from Cell Signaling Technology, and Anti-PARP1 was from ABCAM. Secondary antibodies were conjugated HRP (Cell Signaling) and ECL Clarity was purchased from Bio-Rad. All primary and secondary antibodies were diluted 1:1000 with 5% non-fat Blotting Grade Blocking Reagent in 1× TBST, except for anti-PAR 1:500.
On the technique in general: A western blot detects proteins with antibodies after separation by electrophoresis.

Series [3] deals with PCNA in PC3 cells (Homo sapiens (Human), UniProt P12004). Briefly: Cellular thermal shift assay (CETSA), PCNA control. It counts as cell-based. The settings on record: 10 μM, 2 h. As for the experimental part:
PC3 cells treated with 10 μM JA2131 or DMSO were temperature shocked as described in the Examples and the resulting non-aggregated proteins were analyzed with Anti-PARG or Anti-PCNA antibody. Anti-Histone H3 was used as loading control.
Cellular thermal shift assay (CETSA). CETSA was performed as described in Molina et al., 2013. Briefly, PC3 cells were treated with 10 μM JA2131 or an equivalent volume of DMSO for 2 h, washed three times with PBS and extracted for total cell lysate. 10% glycerol was added to the samples before subjecting to heat. Gradient thermal cycler (C1000 Touch, Bio-Rad) was used to heat samples at 42, 57, 66, 72, 77 and 85° C. for 3 min and chilled on ice for 5 min. Then, samples were centrifuged at 14,000 rpm for 20 min at 4° C. Supernatants were carefully removed and analyzed by Western blotting analysis.

For series [4], the target named is PARP1 (Homo sapiens (Human), UniProt P09874). Briefly: In vitro PARP1 auto-PARylation.
Sequence of PARP1 (P09874 whole entry): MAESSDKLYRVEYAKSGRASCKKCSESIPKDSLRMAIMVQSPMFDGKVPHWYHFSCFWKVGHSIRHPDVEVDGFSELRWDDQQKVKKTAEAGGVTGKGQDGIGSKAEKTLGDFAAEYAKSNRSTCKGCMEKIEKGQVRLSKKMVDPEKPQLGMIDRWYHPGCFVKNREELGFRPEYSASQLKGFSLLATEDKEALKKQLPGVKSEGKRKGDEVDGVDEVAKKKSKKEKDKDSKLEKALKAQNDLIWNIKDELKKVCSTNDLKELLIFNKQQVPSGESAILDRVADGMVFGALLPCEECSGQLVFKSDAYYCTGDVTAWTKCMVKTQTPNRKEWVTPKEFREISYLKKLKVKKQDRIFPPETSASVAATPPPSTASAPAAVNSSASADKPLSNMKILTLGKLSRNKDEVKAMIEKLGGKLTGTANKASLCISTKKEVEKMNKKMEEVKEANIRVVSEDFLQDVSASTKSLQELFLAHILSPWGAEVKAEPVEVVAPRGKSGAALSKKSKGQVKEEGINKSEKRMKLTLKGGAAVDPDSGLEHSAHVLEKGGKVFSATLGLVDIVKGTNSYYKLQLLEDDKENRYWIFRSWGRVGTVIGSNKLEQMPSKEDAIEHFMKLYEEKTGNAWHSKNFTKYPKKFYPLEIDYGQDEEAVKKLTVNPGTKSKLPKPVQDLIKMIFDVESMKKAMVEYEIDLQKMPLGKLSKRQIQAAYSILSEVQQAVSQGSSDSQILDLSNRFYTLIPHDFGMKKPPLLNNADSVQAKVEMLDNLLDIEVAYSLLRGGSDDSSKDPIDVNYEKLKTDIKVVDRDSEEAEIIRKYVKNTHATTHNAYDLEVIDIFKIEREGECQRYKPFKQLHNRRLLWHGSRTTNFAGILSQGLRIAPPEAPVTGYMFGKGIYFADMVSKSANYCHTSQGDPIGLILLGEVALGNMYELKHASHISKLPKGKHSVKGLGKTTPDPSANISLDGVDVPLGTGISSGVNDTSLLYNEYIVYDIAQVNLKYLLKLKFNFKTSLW

Bounds are passed on as bounds.

Sequence of PCNA in PC3 cells (P12004 whole entry): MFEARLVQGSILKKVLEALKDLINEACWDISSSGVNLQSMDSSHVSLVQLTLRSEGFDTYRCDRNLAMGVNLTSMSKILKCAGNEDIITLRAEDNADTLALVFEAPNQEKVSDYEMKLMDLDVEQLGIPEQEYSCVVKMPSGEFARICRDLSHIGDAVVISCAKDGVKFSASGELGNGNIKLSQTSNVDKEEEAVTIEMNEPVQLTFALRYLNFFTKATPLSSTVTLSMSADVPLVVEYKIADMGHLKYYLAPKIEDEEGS

For `O=C1C(Cl)=C(Cl)C(Cl)(Cl)C(Cl)=C1Cl` [JA2131], the “cytotoxic dose in MRC-5 cells relative to MDA-MB-231 cells” value in series [1] was “an order of magnitude higher”. Further, in series [2] (MDA-MB-231, 100 nM, 2 h, 7 Gy X-ray, 1 h recovery), the “cellular PARylation, PARGi combined with IR” value is recorded as “massive increase in cellular PARylation”. Further, the “cellular PARylation, PARGi alone” value in series [2] (MDA-MB-231, without IR, 1 to 5 μM doses) is given as “dose-dependent increase in cellular PARylation”. For the same molecule, the “PAR accumulation in PARG-KD cells” value in series [2] (MDA-MB-231 PARG knockdown cells) is “did not affect the level of PAR accumulation”. Moreover, in series [2] (MDA-MB-231 control cells), the “PAR accumulation in control cells expressing PARG” value is given as “measurable increase in PAR”. Moreover, the “change in thermal stability of PCNA control” value in series [3] is on record as “no significant change”. For the same molecule, in series [4] (in vitro PARP1 auto PARylation), the “concentration up to which PARP1 activation was not inhibited” value is over 100 µM. Further, the “effect on PARP1 auto-PARylation / PAR synthesis by PARP1” value in series [4] (increasing concentration of compound) was “no effect”.
